Laboratory results published in ChEMBL document CHEMBL1201862, “PubChem BioAssay data set” (2004).
Calls of active or inactive are those of the source.

Assays:
[1] = Luminescence Cell-Based Dose Retest to Confirm Inhibitors of Cancer Stem Cells. [Related pubchem assays (depositor defined):AID2717, AID2721]; assay type: functional; conditions: Homo sapiens
[2] = Counterscreen for AddAB inhibitors: absorbance-based bacterial cell-based high throughput dose response assay for inhibitors of bacterial viability. [Related pubchem assays (depositor defined):AID435030, AID449728, AID449731, AID488942, AID488955, AID488956]; assay type: functional
[3] = alpha-synuclein stem-loop luciferase translation blockers – H4 neuroglioma cells, luminescence, confirmation (AID 1988); assay type: functional, cell-based
Exodeoxyribonuclease V = target: T1, Exodeoxyribonuclease V (Escherichia coli (strain K12), UniProt P04993+P07648+P08394); test: RecBCD inhibition via phage-restricted bacterial growth – absorbance, V66 E. coli, mutant T4 phage, counter-screen for AddAB inhibitor project, dose response (AID 492957); assay type: functional, cell-based, Escherichia coli str. K-12 substr. MG1655
T1 sequence (P04993 whole entry): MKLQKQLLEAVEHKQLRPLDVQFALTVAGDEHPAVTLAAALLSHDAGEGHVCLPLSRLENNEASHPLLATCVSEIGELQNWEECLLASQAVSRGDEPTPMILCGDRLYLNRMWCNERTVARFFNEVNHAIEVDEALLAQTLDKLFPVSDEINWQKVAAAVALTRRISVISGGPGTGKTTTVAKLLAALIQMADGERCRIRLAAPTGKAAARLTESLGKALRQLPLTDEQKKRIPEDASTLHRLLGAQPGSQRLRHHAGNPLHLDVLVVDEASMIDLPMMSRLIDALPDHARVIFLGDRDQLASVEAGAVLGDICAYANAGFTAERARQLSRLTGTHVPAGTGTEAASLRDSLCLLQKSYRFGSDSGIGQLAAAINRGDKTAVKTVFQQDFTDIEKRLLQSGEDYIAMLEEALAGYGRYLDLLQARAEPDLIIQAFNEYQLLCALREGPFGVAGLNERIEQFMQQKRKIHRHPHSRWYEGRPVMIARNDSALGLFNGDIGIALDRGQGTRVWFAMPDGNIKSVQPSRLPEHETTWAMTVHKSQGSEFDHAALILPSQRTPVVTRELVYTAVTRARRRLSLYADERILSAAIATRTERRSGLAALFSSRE
T1 sequence (P07648 whole entry): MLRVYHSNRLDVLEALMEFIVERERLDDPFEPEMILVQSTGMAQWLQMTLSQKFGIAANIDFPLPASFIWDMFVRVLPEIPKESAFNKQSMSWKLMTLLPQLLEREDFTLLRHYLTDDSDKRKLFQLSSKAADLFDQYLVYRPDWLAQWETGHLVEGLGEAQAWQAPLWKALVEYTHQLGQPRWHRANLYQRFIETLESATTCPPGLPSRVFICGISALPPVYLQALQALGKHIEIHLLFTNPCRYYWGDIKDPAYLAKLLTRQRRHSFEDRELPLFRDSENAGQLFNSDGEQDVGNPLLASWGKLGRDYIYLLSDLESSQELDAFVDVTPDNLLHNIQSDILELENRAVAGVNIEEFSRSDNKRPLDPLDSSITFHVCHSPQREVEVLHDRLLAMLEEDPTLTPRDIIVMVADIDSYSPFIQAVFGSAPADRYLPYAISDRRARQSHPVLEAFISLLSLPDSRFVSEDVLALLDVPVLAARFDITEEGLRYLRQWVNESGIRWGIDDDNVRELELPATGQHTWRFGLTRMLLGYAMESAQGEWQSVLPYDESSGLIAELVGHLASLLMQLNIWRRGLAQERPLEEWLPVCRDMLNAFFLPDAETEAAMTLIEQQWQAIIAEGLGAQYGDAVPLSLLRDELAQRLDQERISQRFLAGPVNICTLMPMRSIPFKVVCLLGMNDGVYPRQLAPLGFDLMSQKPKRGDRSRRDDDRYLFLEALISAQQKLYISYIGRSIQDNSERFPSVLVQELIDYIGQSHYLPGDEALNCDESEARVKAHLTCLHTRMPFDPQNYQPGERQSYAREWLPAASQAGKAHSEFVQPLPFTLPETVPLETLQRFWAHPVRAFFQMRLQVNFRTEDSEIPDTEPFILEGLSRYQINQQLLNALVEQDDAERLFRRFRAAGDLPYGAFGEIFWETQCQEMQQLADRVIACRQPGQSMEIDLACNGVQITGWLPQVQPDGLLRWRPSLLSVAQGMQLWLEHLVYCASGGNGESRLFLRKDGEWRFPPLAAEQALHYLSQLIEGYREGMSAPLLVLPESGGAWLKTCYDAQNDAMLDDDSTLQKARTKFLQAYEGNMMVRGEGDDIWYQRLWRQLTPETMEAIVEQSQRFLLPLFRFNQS
T1 sequence (P08394 whole entry): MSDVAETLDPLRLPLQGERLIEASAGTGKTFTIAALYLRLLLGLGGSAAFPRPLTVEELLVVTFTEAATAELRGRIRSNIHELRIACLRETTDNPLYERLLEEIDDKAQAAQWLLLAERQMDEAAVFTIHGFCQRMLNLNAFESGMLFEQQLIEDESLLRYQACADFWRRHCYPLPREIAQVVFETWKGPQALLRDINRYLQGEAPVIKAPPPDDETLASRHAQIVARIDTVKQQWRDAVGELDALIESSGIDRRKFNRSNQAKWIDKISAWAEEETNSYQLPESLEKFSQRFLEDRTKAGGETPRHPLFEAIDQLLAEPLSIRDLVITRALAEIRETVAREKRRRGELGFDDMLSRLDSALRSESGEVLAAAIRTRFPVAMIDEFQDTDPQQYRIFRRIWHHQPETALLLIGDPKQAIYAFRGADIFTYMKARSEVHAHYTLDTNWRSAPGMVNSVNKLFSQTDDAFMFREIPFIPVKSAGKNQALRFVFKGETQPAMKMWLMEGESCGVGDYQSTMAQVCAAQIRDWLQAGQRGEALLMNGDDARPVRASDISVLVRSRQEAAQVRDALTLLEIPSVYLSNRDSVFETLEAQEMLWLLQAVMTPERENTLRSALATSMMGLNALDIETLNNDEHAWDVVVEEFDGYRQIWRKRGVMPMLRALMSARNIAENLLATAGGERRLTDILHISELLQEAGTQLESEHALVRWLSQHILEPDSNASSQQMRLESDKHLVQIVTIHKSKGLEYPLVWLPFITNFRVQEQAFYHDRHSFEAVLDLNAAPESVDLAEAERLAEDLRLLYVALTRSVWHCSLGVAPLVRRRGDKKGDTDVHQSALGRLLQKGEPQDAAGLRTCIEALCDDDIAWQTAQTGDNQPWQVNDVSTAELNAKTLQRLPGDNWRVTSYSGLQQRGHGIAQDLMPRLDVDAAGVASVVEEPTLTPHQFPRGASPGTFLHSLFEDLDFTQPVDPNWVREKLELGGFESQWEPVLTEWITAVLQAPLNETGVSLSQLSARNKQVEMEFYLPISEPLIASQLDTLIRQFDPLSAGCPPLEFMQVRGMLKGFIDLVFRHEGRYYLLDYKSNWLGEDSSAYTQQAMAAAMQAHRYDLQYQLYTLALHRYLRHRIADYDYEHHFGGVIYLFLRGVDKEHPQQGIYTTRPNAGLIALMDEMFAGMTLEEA

[4] = NIH-3T3 fibroblast cytotoxicity, dose response, cytotoxicity control, cell-based, fluorescence, Alamar Blue, secondary assay (AID 2327); assay type: functional;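 note: NIH-3T3 mouse fibroblasts cultured with fluconazole at 8 µg/mL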
[5] = Luminescence Cell-Based Dose Response HTS to Identify Inhibitors of 5'UTR Stem-Loop Driven Prion Protein mRNA Translation in H4 Neuroglioblastoma Cells. [Related pubchem assays: 1827 (Project Summary), 1813 (Primary HTS)]; assay type: functional
[6] = fluconazole-exposed Candida albicans growth modulators – fluorescence, retest, confirmation (AID 2467); assay type: functional, cell-based
[7] = luciferase reporter signal suppression in cells – H4 neuroglioma cells, luminescence, dose response (AID 1990); assay type: functional, cell-based
INS1 = test: INS-1E survival protection against cytokine death – cell-based, luminescence, retest, dose response (AID 449756); assay type: functional; conditions: Rattus norvegicus;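 note: cell death triggered by IL-1 beta plus TNF-alpha plus IFN-gamma mixture; protective hits raise ATP signal compared with cytokine alone wells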
[8] = HGIII-sPLA2 enzyme inhibition potency – biochemical, QFRET, IC50, dose response (AID 743457);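 note: green fluorescence rise as the enzyme cleaves BODIPY PC-A2 in liposomes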
Beta-lactamase [9] = target: T2, Beta-lactamase (Pseudomonas aeruginosa, UniProt Q79MP6); test: […] counterscreen for selective VIM-2 inhibitors: dose response biochemical high throughput screening assay to identify inhibitors of IMP-1 metallo-beta-lactamase.
Beta-lactamase [10] = target: T2, Beta-lactamase; test: inhibition of IMP-1 beta-lactamase activity – biochemical, epi-absorbance, selectivity assay for VIM-2 inhibitor project, dose response (AID 1920)
Beta-lactamase [11] = target: Beta-lactamase (Salmonella choleraesuis (strain SC-B67), UniProt Q5J463); test: Epi-absorbance-based counterscreen for selective VIM-2 inhibitors: dose response biochemical high throughput screening assay to identify inhibitors of TEM-1 serine-beta-lactamase.
[12] = target: Arf-GAP with SH3 domain, ANK repeat and PH domain-containing protein 1 (Homo sapiens, UniProt Q9ULH1); assay type: functional;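 note: biochemical fluorescence polarization dose–response screen measuring inhibition of ASAP1; ASAP1 GAP domain stimulating GTP hydrolysis by truncated human ARF1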
Cryptococcus neoformans = test: PubChem AID 686997; assay type: functional, organism-based
[13] = ATP-based viability loss in HEK293T cells – cell-based, CellTiter-Glo luminescence, cherry-picked samples, set 4, cytotoxicity control, dose response (AID 743441); assay type: functional; conditions: HEK293
[14] = target: Matrix metalloproteinase-14 (Homo sapiens, UniProt P50281); test: Dose Response confirmation of uHTS hits for a small molecule inhibitors of MT1-MMP activation in a fluorescence assay set 1.; assay type: functional
Nonstructural protein 1 = Nonstructural protein 1 (Influenza A virus, UniProt Q194T2); assay type: functional, Influenza A virus (A/California/07/2009(H1N1))
Sequence of Nonstructural protein 1 (Q194T2 whole entry): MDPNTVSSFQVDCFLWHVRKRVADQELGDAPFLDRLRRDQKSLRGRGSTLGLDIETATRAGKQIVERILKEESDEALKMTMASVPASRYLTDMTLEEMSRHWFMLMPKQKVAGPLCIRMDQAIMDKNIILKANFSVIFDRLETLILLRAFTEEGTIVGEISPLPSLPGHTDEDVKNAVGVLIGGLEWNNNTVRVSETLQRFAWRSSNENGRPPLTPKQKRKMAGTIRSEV

T2 sequence (Q79MP6 whole entry): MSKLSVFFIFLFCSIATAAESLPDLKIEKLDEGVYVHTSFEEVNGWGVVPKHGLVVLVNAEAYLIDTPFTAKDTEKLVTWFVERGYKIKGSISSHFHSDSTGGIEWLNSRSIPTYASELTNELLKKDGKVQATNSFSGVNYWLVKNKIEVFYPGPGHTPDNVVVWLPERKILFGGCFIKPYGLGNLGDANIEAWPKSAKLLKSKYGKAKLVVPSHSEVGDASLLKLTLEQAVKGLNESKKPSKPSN
Sequence of Arf-GAP with SH3 domain, ANK repeat and PH domain-containing protein 1 (Q9ULH1 whole entry, the tested form may be a part): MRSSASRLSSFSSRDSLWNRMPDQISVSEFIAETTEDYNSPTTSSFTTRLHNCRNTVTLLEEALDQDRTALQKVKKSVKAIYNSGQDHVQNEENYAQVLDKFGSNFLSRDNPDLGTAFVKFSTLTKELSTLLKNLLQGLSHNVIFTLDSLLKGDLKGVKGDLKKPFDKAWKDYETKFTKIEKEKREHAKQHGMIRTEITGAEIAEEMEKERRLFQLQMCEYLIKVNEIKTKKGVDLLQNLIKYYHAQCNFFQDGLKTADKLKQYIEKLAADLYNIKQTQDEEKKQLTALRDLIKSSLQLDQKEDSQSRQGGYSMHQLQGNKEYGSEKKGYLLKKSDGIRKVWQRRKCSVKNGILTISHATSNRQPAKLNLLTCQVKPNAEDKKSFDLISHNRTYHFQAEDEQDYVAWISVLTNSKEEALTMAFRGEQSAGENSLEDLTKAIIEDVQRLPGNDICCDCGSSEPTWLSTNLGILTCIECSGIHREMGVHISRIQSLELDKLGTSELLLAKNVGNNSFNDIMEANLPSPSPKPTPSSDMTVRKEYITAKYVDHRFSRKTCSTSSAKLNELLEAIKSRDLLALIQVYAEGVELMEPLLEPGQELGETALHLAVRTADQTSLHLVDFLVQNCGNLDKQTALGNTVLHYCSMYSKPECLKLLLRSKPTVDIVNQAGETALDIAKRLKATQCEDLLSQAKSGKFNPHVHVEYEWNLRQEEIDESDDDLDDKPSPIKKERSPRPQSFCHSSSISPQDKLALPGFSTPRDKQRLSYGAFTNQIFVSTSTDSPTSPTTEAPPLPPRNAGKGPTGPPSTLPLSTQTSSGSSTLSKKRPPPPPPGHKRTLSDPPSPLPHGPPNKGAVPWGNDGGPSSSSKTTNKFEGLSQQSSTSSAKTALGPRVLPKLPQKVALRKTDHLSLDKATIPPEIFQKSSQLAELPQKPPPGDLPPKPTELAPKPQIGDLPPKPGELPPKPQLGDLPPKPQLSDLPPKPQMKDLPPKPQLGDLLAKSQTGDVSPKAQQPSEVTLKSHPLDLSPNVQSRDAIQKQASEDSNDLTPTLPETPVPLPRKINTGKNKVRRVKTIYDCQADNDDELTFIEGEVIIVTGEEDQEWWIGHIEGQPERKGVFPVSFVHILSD
Sequence of Beta-lactamase (Salmonella choleraesuis (strain SC-B67), UniProt Q5J463) (Q5J463 whole entry, the tested form may be a part): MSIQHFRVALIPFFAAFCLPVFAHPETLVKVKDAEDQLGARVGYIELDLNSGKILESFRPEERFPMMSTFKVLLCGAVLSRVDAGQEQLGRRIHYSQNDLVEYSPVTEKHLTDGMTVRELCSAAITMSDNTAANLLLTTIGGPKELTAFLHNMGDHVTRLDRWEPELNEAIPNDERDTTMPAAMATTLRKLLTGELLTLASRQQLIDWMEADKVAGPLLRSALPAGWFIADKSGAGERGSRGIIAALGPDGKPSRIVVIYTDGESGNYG

Structure (SMILES): Cc1onc(-c2c(Cl)cccc2Cl)c1C(=O)NN=C(N)COc1ccc(Cl)cc1
- AC50 [1]: 3.07 µM (active)
- IC50 [2]: > 119 µM (inactive)
- EC50 [3]: > 120 µM (not active)
- IC50 (Exodeoxyribonuclease V): > 119 µM (inactive)
- EC50 [4]: > 150 µM (inactive)
- EC50 [5]: 12 µM (active)
- EC50 [6]: 3.09 µM (active)
- EC50 [7]: > 120 µM (not active)
- AC50 (INS1): 3.71 µM (active)
- IC50 [8]: > 122 µM (inactive)

Structure (SMILES): S=c1[nH]nc(-c2cccs2)n1Cc1ccccc1
- IC50 (Beta-lactamase [9]): > 59.6 µM (inactive)
- IC50 (Beta-lactamase [10]): > 59.6 µM (inactive)
- IC50 (Beta-lactamase [11]): > 59.6 µM (inactive)

Structure (SMILES): CC(=O)c1cccc(NC(=O)CSc2ccc(-c3ccc4c(c3)OCO4)nn2)c1
- IC50 [12]: 33.9 µM (inactive)

Structure (SMILES): Cc1cc(Cl)ccc1N=C(S)NCc1ccc(F)cc1
- AC50 (Cryptococcus neoformans): > 70 µM (inactive)

Structure (SMILES): Cc1cc(C)c(OCCNC(=O)c2ccccc2Sc2ccccc2C#N)c(C)c1
- AC50 [13]: > 52 µM (inactive)

Structure (SMILES): CCCN1C(=O)/C(=C2/C=Cc3ccccc3N2CC)SC1=S
- IC50 [14]: 29.7 µM (inactive)
- IC50 (Nonstructural protein 1): 5.77 µM (active)
